pIC50: −log10 of the molar value. Converted amounts (≈) assume the structure as drawn.

The subject of one test is Staphylococcus aureus. The test can be described thus: Antibacterial activity against Staphylococcus aureus FDA209P JC-1 assessed as inhibition of bacterial growth incubated for 20 hrs by liquid microculture method. It counts as functional.
The test system of a further test is Kocuria rhizophila. The test can be described thus: Antibacterial activity against Kocuria rhizophila ATCC9341 assessed as inhibition of bacterial growth incubated for 20 hrs by liquid microculture method. The class given is functional.
A further test concerns P388. Nature of the test: Cytotoxicity against mouse P388 cells assessed as inhibition of cell growth incubated for 48 hrs by MTT assay. The class given is functional, cell-based. The settings on record: P388, 48 h. Background: Tetrazolium assays rely on reduction of a dye to a coloured formazan, in cell work by metabolically active cells.

On to `C/C=C(\C)[C@H]1OC(=O)[C@H](C)[C@@H](O[C@@H]2O[C@@H](C)[C@@H](O)[C@@H](O)[C@H]2O)/C(C)=C/C=C/[C@H](C)C/C(C)=C/[C@@H](C)[C@H](O)C[C@@H](O)/C(C)=C/[C@H]1C`, for which the minimal inhibitory concentration (MIC) with Staphylococcus aureus turned out to be 50 µg/mL (≈ 78.8 µM); with Kocuria rhizophila, 25 µg/mL (≈ 39.4 µM). The pIC50 in the test on P388 was 4.86.
`C/C=C(\CC)[C@H]1OC(=O)[C@H](C)[C@@H](O[C@@H]2O[C@@H](C)[C@@H](O)[C@@H](O)[C@H]2O)/C(C)=C/C=C/[C@H](C)C/C(C)=C/[C@@H](C)[C@H](O)C[C@@H](O)/C(C)=C/[C@H]1C`: in the test on Kocuria rhizophila, the MIC stood at 25 µg/mL (≈ 38.5 µM). Moreover, the negative-log IC50 (pIC50) with P388 was 5.08.
For `C/C=C(\C)[C@H]1OC(=O)[C@H](C)[C@@H](O)/C(C)=C/C=C/[C@H](C)C/C(C)=C/[C@@H](C)[C@H](O)C[C@@H](O)/C(C)=C/[C@H]1C`, in that order: 25 µg/mL (≈ 51.2 µM) and 5.41.

For orientation: MIC means the lowest concentration that inhibits growth of the organism. A word on the pIC50: it is the negative decadic logarithm of the IC50, by convention in mol/L.

(Values after ChEMBL document CHEMBL5236622, “Krasilnikolides A and B and Detalosylkrasilnikolide A, Cytotoxic 20-Membered Macrolides from the Genus Krasilnikovia: Assignment of Anomeric Configuration by J-Based Configuration Analysis” (J Nat Prod, 2022).)
